According to patent US10738028B2, “Spiro three-membered ring, spiro five-membered ring peptide deformylase inhibitor and use thereof in antibacteria and anti-tumor” (priority 2016, dated 2020):
Values after ≈ are worked out from the molar mass of the structure shown.

Tests used:
Type in all cases: cell-based
[1] = system: Enterococcus faecalis (EFA); test: MIC, two-fold agar dilution (CLSI), clinical isolates
Excerpt: (§1) 1. The invention adopts the two-fold agar dilution method recommended by the operating procedure of antimicrobial susceptibility testing set by American Clinical and Laboratory Standards Institute (CLSI) to determine the Minimum Inhibitory Concentration (MIC) of the test samples against the tested strains.

[2] = system: Enterococcus faecium (EFM); test: as above
Excerpt: as §1

[3] = system: Escherichia coli (including ESBLs, non-ESBLs); test: as above
Excerpt: as §1

[4] = system: Moraxella catarrhalis (BCA); test: as above
Excerpt: as §1

[5] = system: Streptococcus pneoumoniae (SPN); test: as above
Excerpt: as §1

[6] = system: methicillin-resistant Staphylococcus aureus (MRSA); test: as above
Excerpt: as §1

[7] = system: methicillin-resistant Staphylococcus epidermidis (MRSE); test: as above
Excerpt: as §1

[8] = system: methicillin-sensitive Staphylococcus aureus (MSSA); test: as above
Excerpt: as §1

[9] = system: methicillin-sensitive Staphylococcus epidermidis (MSSE); test: as above
Excerpt: as §1

[10] = system: HCT-116 colorectal cancer cell line; test: CCK-8 proliferation inhibition; details: Homo sapiens, HCT-116, 72 h, concentration of 30 μM; 72 hours; CCK-8; read-out: HCT116 inhibition rate/%
Description: (1) HCT-116 colorectal cancer cell line, A549 lung cancer cell line, MGC-803 gastric cancer cell line, BEL-7402 liver cancer cell line, Jurkat T cell leukemia cell line, HL60 acute myeloid leukemia cell line, Hela cervical cancer cell line, MCF-7 breast cancer cell line, PC3 prostate cancer cell line and SAOS-2 osteosarcoma cell line were made into single cell suspension, 180 μL of which was inoculated into 96-well culture plate, which was cultured overnight in CO2 incubator (37° C., 5% CO2, 95% air).
(2) Each of the spiro three-membered ring, spiro five membered ring peptide deformylase inhibitors was dissolved in DMSO, and was further formulated into drug solution with required different final concentration using corresponding cell culture medium. The drug solutions were added to the above cells respectively (20 μL/well), with the control group added with 1‰ DMSO, and cultured in a CO2 incubator for 72 hours.
(3) After incubation for 72 hours, the culture solution was decanted, and 100 μL of 1:10 diluted CCK-8 solution was added.
Wherein, in step (1), the concentration of the single cell suspension was 2000 cells/well.
Wherein, in step (2), HCT-116 cells were cultured in McCoy's 5A medium (containing 10% newborn bovine serum, 1% double antibody); A549 and PC3 cells were cultured in F12 medium (containing 10% newborn bovine serum, 1% double antibody); MGC-803, BEL-7402, SAOS-2, Jurkat and HL60 cells were cultured in 1640 medium (containing 10% newborn bovine serum, 1% double antibody); and MCF-7 and Hela cells were cultured in DMEM high glucose medium (containing 10% newborn bovine serum, 1% double antibody).

Work on `CCCC[C@H](CN(O)C=O)C(=O)N1CC2(CC2)C[C@H]1C(=O)Nc1nc(C)cs1` [Example 19] yielded an MIC (anti-bacterial activity) ([1]; strain EFA 15-1) of 8 µg/mL (≈ 19.6 µM), an MIC (anti-bacterial activity) ([1]; strain EFA 15-2) of 8 µg/mL (≈ 19.6 µM) and an MIC (anti-bacterial activity) ([1]; strain EFA 15-3) of 8 µg/mL (≈ 19.6 µM). The MIC (anti-bacterial activity) ([1]; strain EFA 15-4) was 8 µg/mL (≈ 19.6 µM), the MIC (anti-bacterial activity) ([1]; strain EFA 15-5) was 8 µg/mL (≈ 19.6 µM) and the MIC (anti-bacterial activity) ([1]; strain EFA 15-6) was 8 µg/mL (≈ 19.6 µM). It also gave an MIC (anti-bacterial activity) ([1]; strain EFA 15-9) of 8 µg/mL (≈ 19.6 µM), an MIC (anti-bacterial activity) ([2]; strain EFM 15-1) of 8 µg/mL (≈ 19.6 µM) and an MIC (anti-bacterial activity) ([2]; strain EFM 15-2) of 4 µg/mL (≈ 9.79 µM). For the same compound, the MIC (anti-bacterial activity) ([2]; strain EFM 15-3) was 0.25 µg/mL (≈ 0.612 µM), the MIC (anti-bacterial activity) ([2]; strain EFM 15-4) was 2 µg/mL (≈ 4.9 µM) and the MIC (anti-bacterial activity) ([2]; strain EFM 15-5) was 0.25 µg/mL (≈ 0.612 µM). It also gave an MIC (anti-bacterial activity) ([2]; strain EFM 15-6) of 2 µg/mL (≈ 4.9 µM), an MIC (anti-bacterial activity) ([3]; strain ECO+ 15-1) of 32 µg/mL (≈ 78.3 µM) and an MIC (anti-bacterial activity) ([3]; strain ECO+ 15-2) of over 32 µg/mL. For the same compound, the MIC (anti-bacterial activity) ([3]; strain ECO+ 15-3) was over 32 µg/mL, the MIC (anti-bacterial activity) ([3]; strain ECO+ 15-4) was over 32 µg/mL and the MIC (anti-bacterial activity) ([3]; strain ECO− 15-1) was over 32 µg/mL. The MIC (anti-bacterial activity) ([3]; strain ECO− 15-2) was over 32 µg/mL, the MIC (anti-bacterial activity) ([3]; strain ECO− 15-3) was over 32 µg/mL and the MIC (anti-bacterial activity) ([3]; strain ECO− 15-4) was over 32 µg/mL. It also gave an MIC (anti-bacterial activity) ([4]; strain BCA 14-1) of 1 µg/mL (≈ 2.45 µM), an MIC (anti-bacterial activity) ([4]; strain BCA 14-4) of 1 µg/mL (≈ 2.45 µM) and an MIC (anti-bacterial activity) ([4]; strain BCA 14-5) of 0.125 µg/mL (≈ 0.306 µM). For the same compound, the MIC (anti-bacterial activity) ([4]; strain BCA 14-6) was 0.5 µg/mL (≈ 1.22 µM), the MIC (anti-bacterial activity) ([4]; strain BCA 14-7) was 0.25 µg/mL (≈ 0.612 µM) and the MIC (anti-bacterial activity) ([4]; strain BCA 14-8) was 0.25 µg/mL (≈ 0.612 µM). It also gave an MIC (anti-bacterial activity) ([4]; strain BCA 14-10) of 0.125 µg/mL (≈ 0.306 µM), an MIC (anti-bacterial activity) ([5]; strain SPN 16-2) of 4 µg/mL (≈ 9.79 µM) and an MIC (anti-bacterial activity) ([5]; strain SPN 16-4) of 0.25 µg/mL (≈ 0.612 µM). The MIC (anti-bacterial activity) ([6]; strain MRSA 15-1) was 0.125 µg/mL (≈ 0.306 µM), the MIC (anti-bacterial activity) ([6]; strain MRSA 15-2) was 0.125 µg/mL (≈ 0.306 µM) and the MIC (anti-bacterial activity) ([6]; strain MRSA 15-3) was 0.03 µg/mL (≈ 0.0734 µM). For the same compound, the MIC (anti-bacterial activity) ([6]; strain MRSA 15-4) was 0.25 µg/mL (≈ 0.612 µM), the MIC (anti-bacterial activity) ([7]; strain MRSE 15-1) was 0.06 µg/mL (≈ 0.147 µM) and the MIC (anti-bacterial activity) ([7]; strain MRSE 15-2) was 0.125 µg/mL (≈ 0.306 µM). For the same compound, the MIC (anti-bacterial activity) ([7]; strain MRSE 15-3) was 0.125 µg/mL (≈ 0.306 µM), the MIC (anti-bacterial activity) ([7]; strain MRSE 15-7) was 0.125 µg/mL (≈ 0.306 µM) and the MIC (anti-bacterial activity) ([8]; strain MSSA 15-3) was 0.125 µg/mL (≈ 0.306 µM). It also gave an MIC (anti-bacterial activity) ([8]; strain MSSA 15-4) of 0.125 µg/mL (≈ 0.306 µM), an MIC (anti-bacterial activity) ([8]; strain MSSA 15-5) of 0.03 µg/mL (≈ 0.0734 µM) and an MIC (anti-bacterial activity) ([8]; strain MSSA 15-6) of 0.25 µg/mL (≈ 0.612 µM). The MIC (anti-bacterial activity) ([9]; strain MSSE 15-3) was 0.125 µg/mL (≈ 0.306 µM), the MIC (anti-bacterial activity) ([9]; strain MSSE 15-4) was 0.125 µg/mL (≈ 0.306 µM) and the MIC (anti-bacterial activity) ([9]; strain MSSE 15-5) was 0.03 µg/mL (≈ 0.0734 µM). For the same compound, the MIC (anti-bacterial activity) ([9]; strain MSSE 15-6) was 0.015 µg/mL (≈ 0.0367 µM) and the inhibition at 30 µM [10] was 6%.

`CCCC[C@H](CN(O)C=O)C(=O)N1CC2(CC2)C[C@H]1C(=O)Nc1cc(C)on1` [Example 21, (S)-5-((R)-2-((N-hydroxyformamido)methyl)hexanoyl)-N-(5-methylisoxazol-3yl)-5-spiro[2.4]heptane-6-carboxamide] showed an MIC (anti-bacterial activity) ([1]; strain EFA 15-1) of 16 µg/mL (≈ 40.8 µM), an MIC (anti-bacterial activity) ([1]; strain EFA 15-2) of 16 µg/mL (≈ 40.8 µM) and an MIC (anti-bacterial activity) ([1]; strain EFA 15-3) of 1 µg/mL (≈ 2.55 µM). For the same compound, the MIC (anti-bacterial activity) ([1]; strain EFA 15-4) was 16 µg/mL (≈ 40.8 µM), the MIC (anti-bacterial activity) ([1]; strain EFA 15-5) was 16 µg/mL (≈ 40.8 µM) and the MIC (anti-bacterial activity) ([1]; strain EFA 15-6) was 4 µg/mL (≈ 10.2 µM). It also gave an MIC (anti-bacterial activity) ([1]; strain EFA 15-9) of 4 µg/mL (≈ 10.2 µM), an MIC (anti-bacterial activity) ([2]; strain EFM 15-1) of 0.5 µg/mL (≈ 1.27 µM) and an MIC (anti-bacterial activity) ([2]; strain EFM 15-2) of 1 µg/mL (≈ 2.55 µM). The MIC (anti-bacterial activity) ([2]; strain EFM 15-3) was 0.5 µg/mL (≈ 1.27 µM), the MIC (anti-bacterial activity) ([2]; strain EFM 15-4) was 1 µg/mL (≈ 2.55 µM) and the MIC (anti-bacterial activity) ([2]; strain EFM 15-5) was 0.5 µg/mL (≈ 1.27 µM). The MIC (anti-bacterial activity) ([2]; strain EFM 15-6) was 2 µg/mL (≈ 5.1 µM), the MIC (anti-bacterial activity) ([3]; strain ECO+ 15-1) was 32 µg/mL (≈ 81.5 µM) and the MIC (anti-bacterial activity) ([3]; strain ECO+ 15-2) was 32 µg/mL (≈ 81.5 µM). It also gave an MIC (anti-bacterial activity) ([3]; strain ECO+ 15-3) of 64 µg/mL (≈ 163 µM), an MIC (anti-bacterial activity) ([3]; strain ECO+ 15-4) of 64 µg/mL (≈ 163 µM) and an MIC (anti-bacterial activity) ([3]; strain ECO− 15-1) of 64 µg/mL (≈ 163 µM). The MIC (anti-bacterial activity) ([3]; strain ECO− 15-2) was 64 µg/mL (≈ 163 µM), the MIC (anti-bacterial activity) ([3]; strain ECO− 15-3) was 64 µg/mL (≈ 163 µM) and the MIC (anti-bacterial activity) ([3]; strain ECO− 15-4) was 64 µg/mL (≈ 163 µM). For the same compound, the MIC (anti-bacterial activity) ([4]; strain BCA 14-1) was 0.5 µg/mL (≈ 1.27 µM), the MIC (anti-bacterial activity) ([4]; strain BCA 14-4) was 0.5 µg/mL (≈ 1.27 µM) and the MIC (anti-bacterial activity) ([4]; strain BCA 14-5) was 0.5 µg/mL (≈ 1.27 µM). The MIC (anti-bacterial activity) ([4]; strain BCA 14-6) was 0.5 µg/mL (≈ 1.27 µM), the MIC (anti-bacterial activity) ([4]; strain BCA 14-7) was 0.5 µg/mL (≈ 1.27 µM) and the MIC (anti-bacterial activity) ([4]; strain BCA 14-8) was 0.5 µg/mL (≈ 1.27 µM). It also gave an MIC (anti-bacterial activity) ([4]; strain BCA 14-10) of 0.5 µg/mL (≈ 1.27 µM), an MIC (anti-bacterial activity) ([5]; strain SPN 16-2) of 4 µg/mL (≈ 10.2 µM) and an MIC (anti-bacterial activity) ([5]; strain SPN 16-4) of 0.5 µg/mL (≈ 1.27 µM). For the same compound, the MIC (anti-bacterial activity) ([6]; strain MRSA 15-1) was 0.25 µg/mL (≈ 0.637 µM), the MIC (anti-bacterial activity) ([6]; strain MRSA 15-2) was 0.5 µg/mL (≈ 1.27 µM) and the MIC (anti-bacterial activity) ([6]; strain MRSA 15-3) was 0.5 µg/mL (≈ 1.27 µM). The MIC (anti-bacterial activity) ([6]; strain MRSA 15-4) was 0.5 µg/mL (≈ 1.27 µM), the MIC (anti-bacterial activity) ([7]; strain MRSE 15-1) was 0.25 µg/mL (≈ 0.637 µM) and the MIC (anti-bacterial activity) ([7]; strain MRSE 15-2) was 0.25 µg/mL (≈ 0.637 µM). It also gave an MIC (anti-bacterial activity) ([7]; strain MRSE 15-3) of 0.25 µg/mL (≈ 0.637 µM), an MIC (anti-bacterial activity) ([7]; strain MRSE 15-7) of 0.25 µg/mL (≈ 0.637 µM) and an MIC (anti-bacterial activity) ([8]; strain MSSA 15-3) of 0.5 µg/mL (≈ 1.27 µM). The MIC (anti-bacterial activity) ([8]; strain MSSA 15-4) was 0.25 µg/mL (≈ 0.637 µM), the MIC (anti-bacterial activity) ([8]; strain MSSA 15-5) was 0.25 µg/mL (≈ 0.637 µM) and the MIC (anti-bacterial activity) ([8]; strain MSSA 15-6) was 0.5 µg/mL (≈ 1.27 µM). The MIC (anti-bacterial activity) ([9]; strain MSSE 15-3) was 0.5 µg/mL (≈ 1.27 µM), the MIC (anti-bacterial activity) ([9]; strain MSSE 15-4) was 0.25 µg/mL (≈ 0.637 µM) and the MIC (anti-bacterial activity) ([9]; strain MSSE 15-5) was 0.03 µg/mL (≈ 0.0764 µM). The MIC (anti-bacterial activity) ([9]; strain MSSE 15-6) was 0.03 µg/mL (≈ 0.0764 µM) and the inhibition at 30 µM [10] was 8%.
